{
  "source": "patent US20160212997A1",
  "about": "“AGRICULTURAL CHEMICALS” (REDAG CROP PROTECTION LTD, priority 2013, published 2016)",
  "key": {"aphids, Myzus persicae": {"tested_on": "aphids, Myzus persicae", "assay": "Potter tower spray on aphids, knockdown and mortality", "format": "in vivo", "conditions": "Myzus persicae, read-out: Average of % corrected affected; for pest or weed control at 0.00625 % strength / pest or weed control at 0.0125 % strength / pest or weed control at 0.025 % strength / pest or weed control at 0.05 % strength / pest or weed control at 0.1 % strength: Aphids; for pest or weed control at 0.00625 % strength: 0.00625 % w/v; for pest or weed control at 0.0125 % strength: 0.0125 % w/v; for pest or weed control at 0.025 % strength: 0.025 % w/v; for pest or weed control at 0.05 % strength: 0.05 % w/v; for pest or weed control at 0.1 % strength: 0.1 % w/v", "excerpt": "The compounds were screened for insecticidal efficacy against aphids, Myzus persicae, Cabbage moth, Mamestra brassicae, diamond black moths, Plutella xylostella, red spider mites, Tetranychus urticae, whitefly, Trialeurodes vaporariorum, in terms of knockdown and mortality.\n(§1) Myzus persicae, Cabbage moth, Mamestra brassicae, diamond back moths, Plutella xylostella, red spider mites, Tetranychus urticae, whitefly, Trialeurodes vaporariorum, were obtained from specified laboratory cultures. Mixed sex and age aphids and mites, moth larvae and whitefly scale infested leaves were used in the experiments. Environmental conditions were closely monitored and recorded and were within the optimal range of the target species.\n(§2) The compounds were screened at a range of five concentrations, diluted in DMSO. Some of the compounds were screened against aphids, whitefly and red spider mites and other compounds were screened against cabbage moth, and diamond black moths. A carrier only and an untreated control will also be conducted. Treatments were applied directly onto the insects within Petri dishes, using a potter tower.\n(§3) Twenty mites and ten aphids, scales and moth larvae were placed within a Petri dish, lined with a suitable leaf disc on a damp cotton wool pad. Scales were already on leaves. The Petri dishes were then sprayed using a potter tower. The number of knocked down and anthropods were assessed at 24 and 48 hours post treatment. Five replicates were be performed for each treatment, for each species.\n(§4) For Tables 2, 4, 5 and 6, the compounds were diluted in DMSO containing 1% v/v Tween 20™. For Tables 2, 4, 5 and 6, the caterpillars were a mixture of Mamestra brassicae and Lacanobia oleracea."}, "[1]": {"tested_on": "caterpillars, a mixture of Mamestra brassicae and Lacanobia oleracea", "assay": "Potter tower spray on caterpillars, knockdown and mortality", "format": "in vivo", "conditions": "read-out: Average of % corrected affected; for pest or weed control at 0.00625 % strength / pest or weed control at 0.0125 % strength / pest or weed control at 0.025 % strength / pest or weed control at 0.05 % strength / pest or weed control at 0.1 % strength: Caterpillars; for pest or weed control at 0.00625 % strength: 0.00625 % w/v; for pest or weed control at 0.0125 % strength: 0.0125 % w/v; for pest or weed control at 0.025 % strength: 0.025 % w/v; for pest or weed control at 0.05 % strength: 0.05 % w/v; for pest or weed control at 0.1 % strength: 0.1 % w/v", "excerpt": "as §1, §2, §3, §4"}, "[2]": {"conditions": "24 h, 24 hours post application"}, "[3]": {"conditions": "48 h, 48 hours post application"}},
  "note": "Read-outs that look alike come from different tables or passages of the source.",
  "data": [
    {"smiles": "COC(CN(Cc1ccc(Cl)nc1)C1=CC(=O)OC1)OC", "note": "[Compound 5, 3-[(6-Chloro-3-pyridyl)methyl-(2,2-dimethoxyethyl)amino]-2H-furan-5-one]", "values": [
      {"measurement": "pest or weed control at 0.00625 % strength", "setting": "aphids, Myzus persicae; [2]", "value": "1 to 19", "unit": "%"},
      {"measurement": "pest or weed control at 0.0125 % strength", "setting": "aphids, Myzus persicae; [2]", "value": "1 to 19", "unit": "%"},
      {"measurement": "pest or weed control at 0.025 % strength", "setting": "aphids, Myzus persicae; [2]", "value": "1 to 19", "unit": "%"},
      {"measurement": "pest or weed control at 0.05 % strength", "setting": "aphids, Myzus persicae; [2]", "value": "20 to 39", "unit": "%"},
      {"measurement": "pest or weed control at 0.1 % strength", "setting": "aphids, Myzus persicae; [2]", "value": "1 to 19", "unit": "%"},
      {"measurement": "pest or weed control at 0.00625 % strength", "setting": "aphids, Myzus persicae; [3]", "value": "1 to 19", "unit": "%"},
      {"measurement": "pest or weed control at 0.0125 % strength", "setting": "aphids, Myzus persicae; [3]", "value": "1 to 19", "unit": "%"},
      {"measurement": "pest or weed control at 0.025 % strength", "setting": "aphids, Myzus persicae; [3]", "value": "1 to 19", "unit": "%"},
      {"measurement": "pest or weed control at 0.05 % strength", "setting": "aphids, Myzus persicae; [3]", "value": "20 to 39", "unit": "%"},
      {"measurement": "pest or weed control at 0.1 % strength", "setting": "aphids, Myzus persicae; [3]", "value": "1 to 19", "unit": "%"},
      {"measurement": "pest or weed control at 0.00625 % strength", "setting": "[1]; [2]", "value": "1 to 19", "unit": "%"},
      {"measurement": "pest or weed control at 0.0125 % strength", "setting": "[1]; [2]", "value": "1 to 19", "unit": "%"},
      {"measurement": "pest or weed control at 0.025 % strength", "setting": "[1]; [2]", "value": "1 to 19", "unit": "%"},
      {"measurement": "pest or weed control at 0.05 % strength", "setting": "[1]; [2]", "value": "1 to 19", "unit": "%"},
      {"measurement": "pest or weed control at 0.1 % strength", "setting": "[1]; [2]", "value": "1 to 19", "unit": "%"},
      {"measurement": "pest or weed control at 0.00625 % strength", "setting": "[1]; [3]", "value": "1 to 19", "unit": "%"},
      {"measurement": "pest or weed control at 0.0125 % strength", "setting": "[1]; [3]", "value": "1 to 19", "unit": "%"},
      {"measurement": "pest or weed control at 0.025 % strength", "setting": "[1]; [3]", "value": "1 to 19", "unit": "%"},
      {"measurement": "pest or weed control at 0.05 % strength", "setting": "[1]; [3]", "value": "1 to 19", "unit": "%"},
      {"measurement": "pest or weed control at 0.1 % strength", "setting": "[1]; [3]", "value": "20 to 39", "unit": "%"}
    ]},
    {"smiles": "N#CCN(Cc1ccc(Cl)nc1)C1=CC(=O)OC1", "note": "[Compound 7, 2-[(6-Chloro-3-pyridyl)methyl-(5-oxo-2H-furan-3-yl)amino]acetonitrile]", "values": [
      {"measurement": "pest or weed control at 0.00625 % strength", "setting": "aphids, Myzus persicae; [2]", "value": "1 to 19", "unit": "%"},
      {"measurement": "pest or weed control at 0.0125 % strength", "setting": "aphids, Myzus persicae; [2]", "value": "20 to 39", "unit": "%"},
      {"measurement": "pest or weed control at 0.025 % strength", "setting": "aphids, Myzus persicae; [2]", "value": "20 to 39", "unit": "%"},
      {"measurement": "pest or weed control at 0.05 % strength", "setting": "aphids, Myzus persicae; [2]", "value": "40 to 59", "unit": "%"},
      {"measurement": "pest or weed control at 0.1 % strength", "setting": "aphids, Myzus persicae; [2]", "value": "1 to 19", "unit": "%"},
      {"measurement": "pest or weed control at 0.00625 % strength", "setting": "aphids, Myzus persicae; [3]", "value": "40 to 59", "unit": "%"},
      {"measurement": "pest or weed control at 0.0125 % strength", "setting": "aphids, Myzus persicae; [3]", "value": "40 to 59", "unit": "%"},
      {"measurement": "pest or weed control at 0.025 % strength", "setting": "aphids, Myzus persicae; [3]", "value": "40 to 59", "unit": "%"},
      {"measurement": "pest or weed control at 0.05 % strength", "setting": "aphids, Myzus persicae; [3]", "value": "40 to 59", "unit": "%"},
      {"measurement": "pest or weed control at 0.1 % strength", "setting": "aphids, Myzus persicae; [3]", "value": "1 to 19", "unit": "%"},
      {"measurement": "pest or weed control at 0.00625 % strength", "setting": "[1]; [2]", "value": "1 to 19", "unit": "%"},
      {"measurement": "pest or weed control at 0.0125 % strength", "setting": "[1]; [2]", "value": "1 to 19", "unit": "%"},
      {"measurement": "pest or weed control at 0.025 % strength", "setting": "[1]; [2]", "value": "1 to 19", "unit": "%"},
      {"measurement": "pest or weed control at 0.05 % strength", "setting": "[1]; [2]", "value": 0, "unit": "%"},
      {"measurement": "pest or weed control at 0.1 % strength", "setting": "[1]; [2]", "value": "1 to 19", "unit": "%"},
      {"measurement": "pest or weed control at 0.00625 % strength", "setting": "[1]; [3]", "value": "1 to 19", "unit": "%"},
      {"measurement": "pest or weed control at 0.0125 % strength", "setting": "[1]; [3]", "value": 0, "unit": "%"},
      {"measurement": "pest or weed control at 0.025 % strength", "setting": "[1]; [3]", "value": "1 to 19", "unit": "%"},
      {"measurement": "pest or weed control at 0.05 % strength", "setting": "[1]; [3]", "value": 0, "unit": "%"},
      {"measurement": "pest or weed control at 0.1 % strength", "setting": "[1]; [3]", "value": "1 to 19", "unit": "%"}
    ]},
    {"smiles": "Cc1cc(C2=NOC(c3cc(Cl)cc(Cl)c3)(C(F)(F)F)C2)ccc1SCC(=O)NCC(F)(F)F", "note": "(stereo not drawn) [Compound 15, 2-[4-[5-(3,5-dichlorophenyl)-5-(trifluoromethyl)-4H-isoxazol-3-yl]-2-methyl-phenyl]sulfanyl-N-(2,2,2-trifluoroethyl)acetamide, reference compound]", "values": [
      {"measurement": "pest or weed control at 0.000125 % strength", "setting": "aphids, Myzus persicae; 24 h", "value": "1 to 19", "unit": "%"},
      {"measurement": "pest or weed control at 0.00025 % strength", "setting": "aphids, Myzus persicae; 24 h", "value": "1 to 19", "unit": "%"},
      {"measurement": "pest or weed control at 0.0005 % strength", "setting": "aphids, Myzus persicae; 24 h", "value": "1 to 19", "unit": "%"},
      {"measurement": "pest or weed control at 0.001 % strength", "setting": "aphids, Myzus persicae; 24 h", "value": "1 to 19", "unit": "%"},
      {"measurement": "pest or weed control at 0.002 % strength", "setting": "aphids, Myzus persicae; 24 h", "value": 0, "unit": "%"},
      {"measurement": "pest or weed control at 0.000125 % strength", "setting": "aphids, Myzus persicae; 48 h", "value": "1 to 19", "unit": "%"},
      {"measurement": "pest or weed control at 0.00025 % strength", "setting": "aphids, Myzus persicae; 48 h", "value": "1 to 19", "unit": "%"},
      {"measurement": "pest or weed control at 0.0005 % strength", "setting": "aphids, Myzus persicae; 48 h", "value": "1 to 19", "unit": "%"},
      {"measurement": "pest or weed control at 0.001 % strength", "setting": "aphids, Myzus persicae; 48 h", "value": "20 to 39", "unit": "%"},
      {"measurement": "pest or weed control at 0.002 % strength", "setting": "aphids, Myzus persicae; 48 h", "value": "20 to 39", "unit": "%"},
      {"measurement": "pest or weed control at 0.000125 % strength", "setting": "[1]; 24 h", "value": "1 to 19", "unit": "%"},
      {"measurement": "pest or weed control at 0.00025 % strength", "setting": "[1]; 24 h", "value": "1 to 19", "unit": "%"},
      {"measurement": "pest or weed control at 0.0005 % strength", "setting": "[1]; 24 h", "value": "1 to 19", "unit": "%"},
      {"measurement": "pest or weed control at 0.001 % strength", "setting": "[1]; 24 h", "value": "1 to 19", "unit": "%"},
      {"measurement": "pest or weed control at 0.002 % strength", "setting": "[1]; 24 h", "value": "1 to 19", "unit": "%"},
      {"measurement": "pest or weed control at 0.000125 % strength", "setting": "[1]; 48 h", "value": 0, "unit": "%"},
      {"measurement": "pest or weed control at 0.00025 % strength", "setting": "[1]; 48 h", "value": "1 to 19", "unit": "%"},
      {"measurement": "pest or weed control at 0.0005 % strength", "setting": "[1]; 48 h", "value": "1 to 19", "unit": "%"},
      {"measurement": "pest or weed control at 0.001 % strength", "setting": "[1]; 48 h", "value": "1 to 19", "unit": "%"},
      {"measurement": "pest or weed control at 0.002 % strength", "setting": "[1]; 48 h", "value": "1 to 19", "unit": "%"}
    ]}
  ]
}
